Reference: patent publication US11059808B2, “Substituted phenylpyrrolecarboxamides with therapeutic activity in HIV” (New York Blood Center, Inc., priority 2014, dated 2021)

Experiments:
TZM-bl cells = assay: Cytotoxicity in TZM-bl cells (XTT); assay type: cell-based; settings: for CC50: XTT, 3 days
Method: The cytotoxicity of test compounds in TZM-bl cells was also measured by the XTT method described previously^7. […] The soluble intracellular formazan was quantitated colorimetrically at 450 nm 4 h later. The percent of cytotoxicity and the CC50 values were calculated as above. (See Table 4)

[1] = system: HIV-1 pseudovirus pseudotyped with HXB2 Env; assay: microbe, parasite or virus in culture; assay type: cell-based; settings: single cycle assay, TZM-bl cells infected with HIV-1 pseudovirus pseudotyped with HXB2 Env;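 further: endpoint is IC50 for inhibition of pseudovirus infection of TZM-bl cells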
[2] = Human immunodeficiency virus 1, HXB2, TZM-bl

SMILES | CC50 (TZM-bl cells) [µM] | IC50 [1] [µM] | IC50 [1, 2] [µM] | percentage in brackets after CC50 >51 (TZM-bl cells; printed "(30%)" without explanation, presumably toxicity at 51 μM) [%]
Cc1nc(C(NC(=O)c2ccc(-c3ccc(Cl)c(F)c3)[nH]2)C2CCCCN2)sc1CO (single isomer, unassigned) [Compound 21] | 17.4 ± 1.6 | 3.2 ± 0.5 | – | –
Cc1ccc(-c2ccc(C(=O)NC(c3nc(C)c(CO)s3)C3CCCCN3)[nH]2)cc1F (single isomer, unassigned) [Compound 23] | ≥ 36 | 3.8 ± 0.3 | – | –
Cc1ccc(-c2ccc(C(=O)NC(c3nc(C)c(CCO)s3)C3CCCCN3)[nH]2)cc1F (single isomer, unassigned) [Compound 25] | 15.3 ± 0.2 | 6.3 ± 0.3 | – | –
Cc1nc(C(NC(=O)c2ccc(-c3ccc(Cl)c(F)c3)[nH]2)C2CCCCN2)sc1CCO (single isomer, unassigned) [Compound 27] | 15.1 ± 0.2 | 8 ± 0.1 | – | –
Cc1nc(C(NC(=O)c2ccc(-c3ccc(Cl)cc3)[nH]2)C2CCCCN2)sc1CCO (single isomer, unassigned) [Compound 29] | 15.4 ± 0.3 | 5.9 ± 0.2 | – | –
Cc1nc(C(NC(=O)c2ccc(-c3ccc(Cl)cc3)[nH]2)C2CCCCN2)[nH]c1CO (single isomer, unassigned) [Compound 34] | 34 ± 0.1 | 16 ± 0.1 | – | –
Cc1nc(C(NC(=O)c2ccc(-c3ccc(Cl)c(F)c3)[nH]2)C2CCCCN2)[nH]c1CO (single isomer, unassigned) [Compound 36] | 31.5 ± 0.2 | 16.2 ± 0.2 | – | –
Cc1ccc(-c2ccc(C(=O)NC(c3nc(C)c(CO)[nH]3)C3CCCCN3)[nH]2)cc1F (single isomer, unassigned) [Compound 38] | 34 ± 0.2 | 17 ± 0.2 | – | –
Cc1nc(C(CN)NC(=O)c2ccc(-c3ccc(Cl)cc3)[nH]2)sc1CO (single isomer, unassigned) [Compound 40] | ~40 | – | – | –
Cc1nc(C(CN)NC(=O)c2ccc(-c3ccc(Cl)c(F)c3)[nH]2)sc1CO (single isomer, unassigned) [Compound 42] | ≥ 33 | – | – | –
Cc1ccc(-c2ccc(C(=O)NC(CN)c3nc(C)c(CO)s3)[nH]2)cc1F (single isomer, unassigned) [Compound 44] | ≥ 34 | 1.1 ± 0.1 | – | –
Cc1nc(C(CNC(=N)N)NC(=O)c2ccc(-c3ccc(Cl)cc3)[nH]2)sc1CO (single isomer, unassigned) [Compound 46] | > 37 | ≥ 20 | – | –
Cc1nc(C(CNC(=N)N)NC(=O)c2ccc(-c3ccc(Cl)c(F)c3)[nH]2)sc1CO (single isomer, unassigned) [Compound 47] | > 36 | ≥ 20 | – | –
Cc1ccc(-c2ccc(C(=O)NC(CNC(=N)N)c3nc(C)c(CO)s3)[nH]2)cc1F (single isomer, unassigned) [Compound 50] | > 37 | > 20 | – | –
Cc1nc(C(CN)NC(=O)c2ccc(-c3ccc(Cl)c(F)c3)[nH]2)sc1CO (single isomer, unassigned) [Compound 52] | 50.5 ± 1.3 | – | – | –
CNCC(NC(=O)c1ccc(-c2ccc(C)c(F)c2)[nH]1)c1nc(C)c(CO)s1 (single isomer, unassigned) [Compound 55] | ~40 | – | – | –
CNCC(NC(=O)c1ccc(-c2ccc(Cl)c(F)c2)[nH]1)c1nc(C)c(CO)s1 (single isomer, unassigned) [Compound 57] | ~20 | ~0.6 | – | –
CNCC(NC(=O)c1ccc(-c2ccc(Cl)cc2)[nH]1)c1nc(C)c(CO)s1 (single isomer, unassigned) [Compound 59] | ~22 | – | – | –
CC(=O)NCC(NC(=O)c1ccc(-c2ccc(Cl)c(F)c2)[nH]1)c1nc(C)c(CO)s1 (single isomer, unassigned) [Compound 60] | > 44 | – | – | –
CC(=O)NCC(NC(=O)c1ccc(-c2ccc(Cl)c(F)c2)[nH]1)c1nc(C)c(CO)s1 (single isomer, unassigned) [Compound 61] | > 44 | – | – | –
Cc1nc(C(CN(C)C)NC(=O)c2ccc(-c3ccc(Cl)cc3)[nH]2)sc1CO (single isomer, unassigned) [Compound 63] | ~30 | – | – | –
Cc1ccc(-c2ccc(C(=O)NC(CN(C)C)c3nc(C)c(CO)s3)[nH]2)cc1F (single isomer, unassigned) [Compound 65] | > 40 | 6.3 ± 1.8 | – | –
Cc1nc(C(CN(C)C)NC(=O)c2ccc(-c3ccc(Cl)c(F)c3)[nH]2)sc1CO (single isomer, unassigned) [Compound 68] | ~29 | 7.2 ± 3 | – | –
Cc1cc(-c2ccc(Cl)cc2)[nH]c1C(=O)NC(CN)c1nc(C)c(CO)s1 (single isomer, unassigned) [Compound 69] | 27.2 ± 0.8 | – | – | –
Cc1cc(-c2ccc(Cl)cc2)[nH]c1C(=O)NC(CN)c1nc(C)c(CO)s1 (single isomer, unassigned) [Compound 70] | 26.4 ± 0.7 | 1.1 ± 0.3 | – | –
Cc1ccc(-c2ccc(C(=O)NC(CCN(C)C)c3nc(C)c(CO)s3)[nH]2)cc1F (single isomer, unassigned) [Compound 73] | 37.1 ± 5.7 | 6.6 ± 0.2 | – | –
Cc1nc(C(CCN(C)C)NC(=O)c2ccc(-c3ccc(Cl)c(F)c3)[nH]2)sc1CO (single isomer, unassigned) [Compound 75] | 21.3 ± 0.6 | 1.5 ± 0.3 | – | –

SMILES | CC50 (TZM-bl cells) [µM] | IC50 [1] [µM] | IC50 [1, 2] [µM] | percentage in brackets after CC50 >51 (TZM-bl cells; printed "(30%)" without explanation, presumably toxicity at 51 μM) [%]
Cc1nc(C(CCN(C)C)NC(=O)c2ccc(-c3ccc(Cl)cc3)[nH]2)sc1CO (single isomer, unassigned) [Compound 77] | 40.2 ± 3 | 10.4 ± 2 | – | –
CNCCC(NC(=O)c1ccc(-c2ccc(C)c(F)c2)[nH]1)c1nc(C)c(CO)s1 (single isomer, unassigned) [Compound 79] | 38.9 ± 2.1 | 1.6 ± 0.4 | – | –
CNCCC(NC(=O)c1ccc(-c2ccc(Cl)c(F)c2)[nH]1)c1nc(C)c(CO)s1 (single isomer, unassigned) [Compound 81] | 22 ± 0.6 | 1.5 ± 0.4 | – | –
CNCCC(NC(=O)c1ccc(-c2ccc(Cl)cc2)[nH]1)c1nc(C)c(CO)s1 (single isomer, unassigned) [Compound 83] | 23 ± 0.6 | 1.7 ± 0.2 | – | –
Cc1ccc(-c2ccc(C(=O)NC(CCN)c3nc(C)c(CO)s3)[nH]2)cc1F (single isomer, unassigned) [Compound 85] | 43.8 ± 1.6 | 4.2 ± 1.7 | – | –
Cc1nc(C(CCN)NC(=O)c2ccc(-c3ccc(Cl)c(F)c3)[nH]2)sc1CO (single isomer, unassigned) [Compound 87] | 35 ± 3 | 6.6 ± 2 | – | –
Cc1nc(C(CCN)NC(=O)c2ccc(-c3ccc(Cl)cc3)[nH]2)sc1CO (single isomer, unassigned) [Compound 89] | 41 ± 1 | 4 ± 0.3 | – | –
Cc1nc(C(CN)NC(=O)c2ccc(-c3ccc(Cl)cc3)n2C)sc1CO (single isomer, unassigned) [Compound 91] | 35.8 ± 0.3 | – | 26 ± 1.4 | –
Cc1nc(C(CN)NC(=O)c2ccc(-c3ccc(Cl)cc3)n2C)sc1CO (single isomer, unassigned) [Compound 92] | 36.7 ± 0.4 | 25.8 ± 1.1 | – | –
Cc1nc(C(CN)NC(=O)c2cnc(-c3ccc(Cl)cc3)[nH]2)sc1CO (single isomer, unassigned) [Compound 94] | > 51 | – | – | –
Cc1nc(C(CN)NC(=O)c2ncc(-c3ccc(Cl)cc3)[nH]2)sc1CO (single isomer, unassigned) [Compound 96] | > 51 | ~51 | – | –
Cc1cc(C(=O)NC(CN)c2nc(C)c(CO)s2)[nH]c1-c1ccc(Cl)cc1 (single isomer, unassigned) [Compound 98] | 22.2 ± 0.3 | – | – | –
Cc1ccc(-c2ccc(C(=O)NC(CN)c3ncc(CO)s3)[nH]2)cc1F (single isomer, unassigned) [Compound 100] | 39.2 ± 0.8 | – | – | –
NCC(NC(=O)c1ccc(-c2ccc(Cl)c(F)c2)[nH]1)c1ncc(CO)s1 (single isomer, unassigned) [Compound 102] | 31.8 ± 0.4 | 0.77 ± 0.04 | – | –
NCC(NC(=O)c1ccc(-c2ccc(Cl)cc2)[nH]1)c1ncc(CO)s1 (single isomer, unassigned) [Compound 103] | 37.1 ± 0.3 | – | 0.75 ± 0.2 | –
COc1cc(C(=O)NC(CN)c2nc(C)c(CO)s2)[nH]c1-c1ccc(Cl)cc1 (single isomer, unassigned) [Compound 106] | 22.2 ± 2.5 | 12.4 ± 2.5 | – | –
Cc1nc(C(CNC(C)C)NC(=O)c2ccc(-c3ccc(Cl)cc3)[nH]2)sc1CO (single isomer, unassigned) [Compound 107] | 28.5 ± 3.5 | – | 4.2 ± 0.3 | –
Cc1nc(C(CN)NC(=O)c2ccc(-c3ccc(Cl)cc3)[nH]2)sc1CN (single isomer, unassigned) [Compound 108] | 14.6 ± 0.2 | – | 12.1 ± 0.5 | –
Cc1nc(C(NC(=O)c2ccc(-c3ccc(Cl)cc3)[nH]2)C(C)(C)N)sc1CO (single isomer, unassigned) [Compound 110] | 20.6 ± 1.2 | 1.1 ± 0.2 | – | –
Cc1nc(C(NC(=O)c2ccc(-c3ccc(Cl)c(F)c3)[nH]2)C(C)(C)N)sc1CO (single isomer, unassigned) [Compound 112] | 13.9 ± 0.7 | 0.27 ± 0.04 | – | –
Cc1ccc(-c2ccc(C(=O)NC(c3nc(C)c(CO)s3)C(C)(C)N)[nH]2)cc1F (single isomer, unassigned) [Compound 114] | 17.8 ± 0.3 | 0.34 ± 0.02 | – | –
CNCC(NC(=O)c1ccc(-c2ccc(Cl)c(F)c2)[nH]1)c1ncc(CO)s1 (single isomer, unassigned) [Compound 115] | 17.3 ± 0.5 | – | 0.95 ± 0.03 | –
CNCC(NC(=O)c1ccc(-c2ccc(Cl)c(F)c2)[nH]1)c1ncc(CO)s1 (single isomer, unassigned) [Compound 116] | 17.4 ± 0.4 | 1.4 ± 0.05 | – | –
CNCC(NC(=O)c1ccc(-c2ccc(C)c(F)c2)[nH]1)c1ncc(CO)s1 (single isomer, unassigned) [Compound 117] | 27.4 ± 0.8 | – | 1 ± 0.2 | –
Cc1nc(C(CN)NC(=O)c2ccc(-c3ccc(F)c(F)c3)[nH]2)sc1CO (single isomer, unassigned) [Compound 122] | > 51 | – | – | 30
CNc1cc(NC(=O)c2ccc(-c3ccc(F)c(Cl)c3)[nH]2)nc(NC(=N)N)n1 [Compound 53] | ≥ 36 | – | – | –
